The melting point is the temperature of the solid-liquid transition.

“Also recorded” adds a separate entry of the source.

Data set [1] has as its system TGF-β-induced increases in fibronectin and thrombospondin. Conditions: cited from earlier work.
The conditions of data set [2]: patients suffering from Psoriasis; seen as early as 4 weeks, persisted for 12 weeks; cited from earlier work.
The conditions of data set [3]: patients with sleep apnea; cited from earlier work.
Data set [4] concerns circulating levels of TNFα. Particulars: mice; cited from earlier work.
In data set [5] the test system is influx of neutrophils to the lung in LPS-challenged rats. Kind of data set: Rat LPS neutrophilia model. The data set is classed as in vivo. Conditions: LPS aerosol 100 ug/ml 15 min, lavage 4 hours later; in at least one of the range of conditions tested. The method, boiled down: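 Rats were dosed intratracheally (200 µl, suspension, under isoflurane) 15 min–24 h before 15 min exposure to LPS aerosol (100 µg/ml). Four hours later, bronchoalveolar lavage cells were stained and counted differentially. Results are % neutrophil inhibition versus untreated controls at a stated dose and pretreatment time.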

Regarding `COc1nccc(-c2c(-c3ccc(F)cc3)ncn2C2CCNCC2)n1` [SB-242235], the “TGF-β-induced increases in fibronectin and thrombospondin” value in data set [1] is reported as “inhibited”.

With etanercept, the “symptoms of depression (HAMD and BDI score) and fatigue” value in data set [2] is reported as “demonstrated efficacy; also recorded: reduce symptoms of depression”. For the same compound, in data set [3], the sleepiness entry is on record as “decreases in sleepiness”.

For the compound `CC(NC(C)(C)C)C(=O)c1cccc(Cl)c1` (centres unmarked) [bupropion], the “circulating levels of TNFα” value in data set [4] is reported as “reduce circulating levels of TNFα”.

For the compound `Cc1ccc(NC(=O)c2ccsc2)cc1-c1nc(N2CCC(N)CC2)nc2c1CNC(=O)N2c1c(F)cccc1F` [Example 11, N-{3-[2-(4-amino-1-piperidinyl)-8-(2,6-difluorophenyl)-7-oxo-5,6,7,8-tetrahydropyrimido[4,5-d]pyrimidin-4-yl]-4-methylphenyl}-3-thiophenecarboxamide], the melting point was 250 to 261 °C (dec.). For the same compound, the inhibition of neutrophilia result in data set [5] is recorded as “statistically significant inhibition”.

For `Cc1ccc(C(=O)Nc2ccc(C)c(-c3nc(N(C)C)nc4c3CNC(=O)N4c3c(F)cccc3F)c2)cc1F` [Example 28, N-{3-[8-(2,6-difluorophenyl)-2-(dimethylamino)-7-oxo-5,6,7,8-tetrahydropyrimido[4,5-d]pyrimidin-4-yl]-4-methylphenyl}-3-fluoro-4-methylbenzamide], the melting point lay in the range of 257.8 to 264.3 °C. The inhibition of neutrophilia entry in data set [5] is listed as “statistically nonsignificant inhibition”.

Regarding `Cc1ccc(C(=O)Nc2ccc(C)c(-c3nc(OC(C)C)nc4c3CNC(=O)N4c3c(F)cccc3F)c2)cc1F` [Example 26, N-(3-{8-(2,6-difluorophenyl)-2-[(1-methylethyl)oxy]-7-oxo-5,6,7,8-tetrahydropyrimido[4,5-d]pyrimidin-4-yl}-4-methylphenyl)-3-fluoro-4-methylbenzamide], the melting point lay in the range of 253.5 to 255.4 °C. In addition, in data set [5], the inhibition of neutrophilia entry is “inactive”.

Regarding `CNC(=O)c1ccc(C)c(-c2nc(N3CCC(N4CCCCC4)CC3)nc3c2CNC(=O)N3c2c(F)cccc2F)c1` [Example 176, 3-[2-(1,4′-bipiperidin-1′-yl)-8-(2,6-difluorophenyl)-7-oxo-5,6,7,8-tetrahydropyrimido[4,5-d]pyrimidin-4-yl]-N,4-dimethylbenzamide], the melting point was 179 to 184 °C (dec.). For the same compound, the inhibition of neutrophilia entry in data set [5] is on record as “statistically nonsignificant inhibition”.

Turning to `CNC(=O)c1ccc(C)c(-c2nc(NCCCN(C)C)nc3c2CNC(=O)N3c2c(F)cccc2F)c1` [Example 166, 3-(8-(2,6-difluorophenyl)-2-{[3-(dimethylamino)propyl]amino}-7-oxo-5,6,7,8-tetrahydropyrimido[4,5-d]pyrimidin-4-yl)-N,4-dimethylbenzamide], the melting point was 164 to 167 °C (dec.). Besides, in data set [5], the inhibition of neutrophilia result was “statistically nonsignificant inhibition”.
